ChEMBL document CHEMBL1132020, “Highly potent inhibitors of the Grb2-SH2 domain” (Bioorg Med Chem Lett, 1999)

target: Growth factor receptor-bound protein 2 (Homo sapiens, UniProt P62993); assay: Inhibition of Grb-SH2 domain binding to phosphorylated carboxy-terminal intracellular domain of epidermal growth factor receptor; assay type: cell-based

Row | IC50 | SMILES
1 | 3.4 nM | CC(=O)N[C@@H](Cc1ccc(CP(=O)(O)O)cc1)C(=O)NC1(C(=O)N[C@@H](CC(N)=O)C(=O)NCCCn2ccc3cc(N(C)C)ccc32)CCCCC1
2 | 0.9 nM | COc1ccc2c(ccn2CCCNC(=O)[C@H](CC(N)=O)NC(=O)C2(NC(=O)[C@H](Cc3ccc(CP(=O)(O)O)cc3)NC(C)=O)CCCCC2)c1
3 | 0.4 nM | CC(=O)N[C@@H](Cc1ccc(CP(=O)(O)O)cc1)C(=O)NC1(C(=O)N[C@@H](CC(N)=O)C(=O)NCCCn2ccc3cc(C)ccc32)CCCCC1
4 | 1.2 nM | CC(=O)N[C@@H](Cc1ccc(CP(=O)(O)O)cc1)C(=O)NC1(C(=O)N[C@@H](CC(N)=O)C(=O)NCCCn2ccc3ccccc32)CCCCC1
5 | 59 nM | CC(=O)N[C@@H](Cc1ccc(CP(=O)(O)O)cc1)C(=O)NC1(C(=O)N[C@@H](CC(N)=O)C(=O)NCCCn2ccc3cc(Cl)ccc32)CCCCC1
6 | 14.7 nM | CC(=O)N[C@@H](Cc1ccc(CP(=O)(O)O)cc1)C(=O)NC1(C(=O)N[C@@H](CC(N)=O)C(=O)NCCCn2c(C)cc3ccccc32)CCCCC1

The next lines start with the molecule.

Row | SMILES | IC50
7 | CC(=O)N[C@@H](Cc1ccc(CP(=O)(O)O)cc1)C(=O)NC1(C(=O)N[C@@H](CC(N)=O)C(=O)NCCCc2c[nH]c3ccccc23)CCCCC1 | 155 nM
8 | CC(=O)N[C@@H](Cc1ccc(CP(=O)(O)O)cc1)C(=O)NC1(C(=O)N[C@@H](CC(N)=O)C(=O)NCCCn2ccc3cc(O)ccc32)CCCCC1 | 0.3 nM
9 | COc1ccc2c(CCCNC(=O)[C@H](CC(N)=O)NC(=O)C3(NC(=O)[C@H](Cc4ccc(CP(=O)(O)O)cc4)NC(C)=O)CCCCC3)c[nH]c2c1 | 14 nM
10 | CC(=O)N[C@@H](Cc1ccc(CP(=O)(O)O)cc1)C(=O)NC1(C(=O)N[C@@H](CC(N)=O)C(=O)NCCCc2cn(C)c3ccccc23)CCCCC1 | 9.2 nM
11 | CC(=O)N[C@@H](Cc1ccc(CP(=O)(O)O)cc1)C(=O)NC1(C(=O)N[C@@H](CC(N)=O)C(=O)NCCCn2cc(C)c3ccccc32)CCCCC1 | 81 nM
